“And” between values parts separate entries of the source, which are not always exact repeats. Equal entries are not always repeated.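 Where inhibition never reached the appropriate level, the endpoint shown equals the highest concentration tested. Otherwise, values were interpolated linearly from a five-concentration, 48-hour dose response in 96-well plates. GI50: concentration for 50% inhibition of growth. TGI is the concentration that stops growth completely.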

Assay in all cases: growth of human tumour cells (NCI), 48 h
Assay [1] deals with RXF 393 renal.
Assay [2] relates to UACC-257 melanoma.
The subject of assay [3] is MCF7 breast.
For assay [4], the system named is DU-145 prostate.
Assay [5] has as its system BT-549 breast.
For assay [6], the system named is SNB-19 CNS.
Assay [7] relates to HOP-92 NSCLC.
Assay [8] deals with OVCAR-4 ovarian.
For assay [9], the system named is HS 578T breast.
The subject of assay [10] is TK-10 renal.

With `COc1ccc(Nc2cc(C)nc(NCc3ccccc3)n2)cc1`, the GI50 was 3.07 µM in assay [1]; 3.18 µM in assay [2]; 3.51 µM in [3]; 10.6 µM in assay [4]; 4.42 µM in [5]; 5.02 µM in assay [6]. The GI50 in [7] is 1.19 µM; in assay [8] it was 2.42 µM; in [9] it was 11 µM; in [10], 5.48 µM. Besides, the TGI in assay [1] worked out at 14.4 µM; in assay [2], 13.3 µM; in assay [3] it was 18.9 µM; in assay [4], 23 µM; in assay [5], 17.7 µM; in assay [6], 28.8 µM. The TGI was found to be 6.43 µM in [7], 19.3 µM in [8], 39.2 µM in assay [9] and 18.9 µM in assay [10].
For the compound `O=[N+]([O-])c1ccc(C2=Nn3c(nnc3-c3ccc(Cl)cc3)SC2)o1`, the TGI in assay [1] amounted to 21.6 µM; in assay [2], 16.9 µM; in [3] it was 4.05 µM; in [4], 39.6 µM; in [5] it was 23.9 µM; in [6], 29.9 µM. The TGI in assay [7] turned out to be 8.31 µM; in assay [8] it was 6.66 µM; in assay [9] it was 18.4 µM; in assay [10], 29.7 µM.
Turning to `CC1=CCCC2C1(C)CCC(C)C2(C)Cc1cc(O)ccc1O` (stereo unspecified), the GI50 in assay [1] is 3.74 µM; in assay [2], 9.99 µM; in assay [3], 7.15 µM; in assay [6], 11.5 µM; in [8], 3.58 µM. Further, the TGI in assay [1] was 20.4 µM and 10.9 µM; in assay [2], 29.1 µM and 26.4 µM; in assay [3], 21.7 µM and 19.8 µM; in assay [4] it was 30.4 µM; in assay [5] it was 16.2 µM; in assay [6] it was 27.3 µM and 18.5 µM. Besides, the TGI in assay [7] is 22.6 µM and 15.2 µM; in assay [8], 24.8 µM and 10.8 µM; in assay [9], 17.9 µM; in assay [10] it was 25.5 µM.
`C[C@]12CC[C@@H]3c4cc(O)c(O)cc4CC[C@H]3[C@@H]1CC[C@@H]2O`: the GI50 was 2.44 µM in assay [1]; 13 µM in assay [2]; 3.07 µM in [3]; 4.46 µM in [4]; 1.78 µM in assay [5]; 11.1 µM in assay [6]. In addition, the GI50 is 3.32 µM in [7], 16.2 µM in assay [8], 1.98 µM in assay [9] and 24.8 µM in [10]. Further, the TGI in assay [1] was 19 µM; in assay [2], more than 100 µM; in assay [3] it was 18 µM; in [4] it was more than 100 µM; in assay [5] it was 42.3 µM; in assay [6] it was more than 100 µM. The TGI in assay [7] was 29 µM; in assay [8] it was more than 100 µM; in assay [9], 17.5 µM; in assay [10], more than 74.9 µM.
With `COC(=O)C1=CO[C@@H](OC2OC(CO)C(O)C(O)C2O)[C@H]2[C@@H](C)[C@@H](O)[C@@H](O)[C@@H]12` (stereo partly specified), the TGI in assay [1], in assay [2], in [3], in assay [4], in assay [5] and in assay [7] was more than 100 µM throughout. In addition, the TGI in assay [8], in [9] and in assay [10] was more than 100 µM throughout.
Regarding `CC(=O)Nc1c(I)c(NC(C)=O)c(I)c(C(=O)O)c1I`, the GI50 in assay [1], in [2], in [3], in assay [4], in assay [5] and in assay [7] was more than 100 µM in each case. Further, the GI50 in [8], in assay [9] and in [10] was more than 100 µM in each case. Further, the TGI in assay [1], in assay [2], in [3], in assay [4], in assay [5] and in assay [7] was more than 100 µM throughout. Besides, the TGI in [8], in assay [9] and in assay [10] was more than 100 µM in each case.
With `COc1cc2c(cc1Cc1cccc(Cl)c1F)c(=O)c(C(=O)O)cn2[C@@H](CO)C(C)C`, the GI50 was 4.57 µM in assay [1]; 3.23 µM in [2]; 3.54 µM in [3]; 5.62 µM in assay [4]; 2.09 µM in assay [5]; 3.07 µM in assay [6]. Further, the GI50 in assay [7] was 1.45 µM; in assay [8], 3.7 µM; in assay [9], 3.97 µM. Further, the TGI in assay [1] was determined as 16.3 µM; in [2], 14 µM; in assay [3] it was 16.3 µM; in assay [4], 18.8 µM; in [5], 8.66 µM; in [6], 16 µM. In addition, the TGI in [7] amounted to 6.34 µM; in assay [8], 16.6 µM; in assay [9] it was 32.7 µM.
Consider `N#Cc1c(N)n2c(nc1=Nc1ccc(Cl)cc1)sc1cc(Cl)ccc12`, for which the GI50 in [2] was more than 100 µM; in assay [3] it was 1.83 µM; in [4], more than 100 µM; in assay [5] it was 24.8 µM; in assay [6], more than 100 µM; in [8] it was 9.82 µM. Besides, the GI50 was 2.98 µM and 1.44 µM in [9]; 15 µM in assay [10]. The TGI in assay [2], in assay [3], in assay [4], in assay [5], in [6] and in [8] was more than 100 µM throughout. In addition, the TGI in [9] is 5.92 µM; in assay [10] it was more than 100 µM.

For the origin of these results see PubChem BioAssay (NCI).
